Patent US8765719B2, “Therapeutic drug for adult T-cell leukemia” (Kagoshima University, priority 2008, dated 2014)
Like-named read-outs stand apart in the source and are kept apart here.

Tests used:
Type in all cases: cell-based
[1] = tested on: S1T (cell strain originated from an ATL patient); experiment: Growth inhibition of S1T cells, 4-day culture, MTT method; conditions: for IC50: S1T cells, 4 days; for Selectivity to ATL cell (S1T) in words: S1T versus MOLT-4; for Selectivity index on the S1T cell (SI = IC50 for MOLT-4/IC50 for S1T): screen with S1T and MOLT-4
Procedure: (§1) In the presence of various agents, S1T (cell strain originated from an ATL patient), MT-2 (HTLV-1 infected cell strain), and as controls, MOLT-4 (acute lymphoblastic leukemia cell strain), CEM (acute lymphoblastic leukemia cell strain), HL-60 (acute promyelocytic leukemia cell strain), and Jurkat (acute T-cell leukemia cell strain) were cultivated for 4 days, and the growth inhibitory effects of compounds on the respective cells were evaluated by the MIT method.
(§2) In the presence of various concentrations of agents, SIT (cell strain originated from an ATL patient) and as a control MOLT-4 (acute lymphoblastic leukemia cell strain) were cultivated for 4 days, and the growth inhibitory effects of the compounds on the respective cells were evaluated by the MTT method.

[2] = tested on: MOLT-4 (acute lymphoblastic leukemia cell strain); experiment: Growth inhibition of MOLT-4 control cells, 4-day culture, MTT method; conditions: MOLT-4 cells, 4 days
Procedure: as §1, §2

[3] = tested on: Jurkat (acute T-cell leukemia cell strain); experiment: Growth inhibition of Jurkat control cells, 4-day culture; conditions: 4 days
Procedure: as §1, with “S1T” left out

[4] = tested on: HL-60 (acute promyelocytic leukemia cell strain); experiment: Growth inhibition of HL-60 control cells, 4-day culture; conditions: HL-60 cells, 4 days
Procedure: as §1, with “S1T” left out

[5] = tested on: MT-2 (HTLV-1 infected cell strain); experiment: Growth inhibition of MT-2 cells, 4-day culture; conditions: 4 days
Procedure: as §1, with “S1T” left out

[6] = tested on: CEM (acute lymphoblastic leukemia cell strain); experiment: Growth inhibition of CEM control cells, 4-day culture; conditions: 4 days
Procedure: as §1, with “S1T” left out

[7] = Homo sapiens, 96 h, Table 2, MTT, mean of at least 2 experiments, read-out: IC50 (μM) S1T cell
[8] = Table 2, selectivity to ATL cell (IC50 for MOLT-4/IC50 for S1T)
[9] = Homo sapiens, 96 h, Table 2, MTT, mean of at least 2 experiments, read-out: IC50 (μM) MOLT-4 cell
[10] = Homo sapiens, 96 h, Table 1, concentration to inhibit cell growth by 50%, read-out: IC50 (μM) S1T
[11] = Table 1, selectivity index = IC50 for MOLT-4/IC50 for S1T
[12] = Homo sapiens, 96 h, Table 1, concentration to inhibit cell growth by 50%, read-out: IC50 (μM) MOLT-4
[13] = Table 2, MTT, mean of at least 2 experiments, read-out: IC50 (μM) S1T cell
[14] = Table 2, MTT, mean of at least 2 experiments, read-out: IC50 (μM) MOLT-4 cell

Row | IC50 [2, 9] | IC50 [2, 12] | Structure (SMILES) | IC50 [1, 7] | SI [1, 8] | IC50 [1, 10] | SI [1, 11] | also measured
1 | 21.5 ± 2.2 µM | – | CCC(=O)c1ccc2c(c1)C(C)(C)CCC2(C)C [Agent E, 5,6,7,8-tetrahydro-5,5,8,8-tetramethyl-2-naphthyl ethyl ketone] | 3.3 ± 1 µM | 6.5 | – | – | –
2 | – | 11.9 µM | COc1cc2c(cc1C(C)=O)C(C)(C)CCC2(C)C [TMN(OCH3) (COCH3)] | – | – | 7 µM | 1.7 | Selectivity to ATL cell (S1T) in words [1]: higher selectivity to an ATL cell than other derivatives with analogous structures
3 | 13.6 ± 2.6 µM | – | CC1(C)CCC(C)(C)c2cc3c(cc21)OCCC3=O [Agent O, 2,3,6,7,8,9-hexahydro-6,6,9,9-tetramethyl-4H-naphtho[2,3-b]pyran-4-one] | 6.7 ± 0.9 µM | 2.0 | – | – | –
4 | 14.5 ± 1.9 µM | – | CC1(C)CCC(C)(C)c2cc3c(=O)ccoc3cc21 [Agent N, 6,7,8,9-tetrahydro-6,6,9,9-tetramethyl-4H-naphtho[2,3-b]pyran-4-one] | 1.9 ± 0.2 µM | 7.6 | – | – | –
5 | – | – | CC1(C)CCC(C)(C)c2cc(C(N)=O)ccc21 [Agent K, 5,6,7,8-tetrahydro-5,5,8,8-tetramethyl-2-naphthyl amide] | – | 1.1 | – | – | IC50 [1, 13]: 37 ± 2.1 µM; IC50 [2, 14]: 39.4 ± 10.4 µM
6 | – | > 100 µM | CC1(C)CCC(C)(C)c2ccccc21 [TMN, reference compound] | – | – | > 100 µM | – | –
7 | – | 61.1 µM | CC1(C)CCC(C)(C)c2cc(C(=O)O)ccc21 [TMBA, reference compound] | – | – | > 100 µM | <0.61 | –
8 | 34.6 ± 1.5 µM | – | CC(C)C(=O)c1ccc2c(c1)C(C)(C)CCC2(C)C [Agent F, 5,6,7,8-tetrahydro-5,5,8,8-tetramethyl-2-naphthyl isopropyl ketone] | 3.8 ± 2.1 µM | 9.1 | – | – | –
9 | – | 66 µM | CC(=O)c1ccc2c(c1)C(C)(C)CCC2(C)C [TMN(COCH3), 5,6,7,8-tetrahydro-5,5,8,8-tetramethyl-2-naphthyl methyl ketone] | – | – | 6.9 µM | 9.6 | Selectivity to ATL cell (S1T) in words [1]: higher selectivity to an ATL cell than other derivatives with analogous structures
10 | 11.8 ± 2.2 µM | – | CC1(C)CCC(C)(C)c2cc(C(=O)c3ccccc3)ccc21 [Agent H, 5,6,7,8-tetrahydro-5,5,8,8-tetramethyl-2-naphthyl phenyl ketone] | 7 ± 0.9 µM | 1.7 | – | – | –
11 | – | – | CC(=S)c1cc2c(cc1O)C(C)(C)CCC2(C)C [Agent G, 5,6,7,8-tetrahydro-3-hydroxy-5,5,8,8-tetramethyl-2-naphthyl ethanethione] | – | 5.3 | – | – | IC50 [1, 13]: 6.9 ± 2.3 µM; IC50 [2, 14]: 36.4 ± 2.1 µM
12 | – | – | CN(C)C=CC(=O)c1cc2c(cc1O)C(C)(C)CCC2(C)C [Agent M, 5,6,7,8-tetrahydro-3-hydroxy-5,5,8,8-tetramethyl-2-naphthyl 13-(N,N-dimethylamino)vinyl ketone] | – | 4.4 | – | – | IC50 [1, 13]: 2.1 ± 0.1 µM; IC50 [2, 14]: 9.3 ± 0.9 µM
13 | – | – | CON(C)C(=O)c1ccc2c(c1)C(C)(C)CCC2(C)C [Agent J, 5,6,7,8-tetrahydro-5,5,8,8-tetramethyl-2-naphthyl-N-methoxy-N-methylamide] | – | <1.0 | – | – | IC50 [1, 13]: 12.6 ± 2.1 µM; IC50 [2, 14]: 9.9 µM

Row | Structure (SMILES) | IC50 [2, 9] | IC50 [2, 12] | IC50 [1, 7] | SI [1, 8] | IC50 [1, 10] | SI [1, 11] | also measured
14 | O=C([O-])c1ccccc1O.[Na+] [Sodium salicylate, reference compound] | – | 1320 µM | – | – | 1570 µM | 0.84 | Selectivity to ATL cell (S1T) in words [1]: no selectivity to S1T was recognized
15 | CC(C)C(=O)c1cc2c(cc1O)C(C)(C)CCC2(C)C [Agent B, 5,6,7,8-tetrahydro-3-hydroxy-5,5,8,8-tetramethyl-2-naphthyl isopropyl ketone] | 31.9 ± 0.2 µM | – | 6 ± 0.7 µM | 5.3 | – | – | –
16 | CC(=O)c1cc2c(cc1O)C(C)(C)CCC2(C)C [TMNAA, 5,6,7,8-tetrahydro-3-hydroxy-5,5,8,8-tetramethyl-2-naphthyl methyl ketone] | – | 53.8 µM | – | – | 5 µM | 10.8 | Growth inhibitory effect on Jurkat [3]: specific inhibitory effect solely on MT-2; Growth inhibitory effect on HL-60 [4]: specific inhibitory effect solely on MT-2; Concentration at which growth of an ATL cell is selectively inhibited in comparison to the control ([1]; FIG. 1): ≥ 4 µM; Selectivity to ATL cell (S1T) in words [1]: higher selectivity to an ATL cell than other derivatives with analogous structures; Selectivity index on the S1T cell (SI = IC50 for MOLT-4/IC50 for S1T) [1]: ≥ 10; Selectivity index on the S1T cell (SI = IC50 for MOLT-4/IC50 for S1T) ([1]; listed as compound of the formula III): above 10; Growth inhibitory effect on MT-2 [5]: specific inhibitory effect solely on MT-2; Growth inhibitory effect on CEM [6]: specific inhibitory effect solely on MT-2
17 | CC1(C)CCC(C)(C)c2cc(C(=O)c3ccccc3)c(O)cc21 [Agent D, 5,6,7,8-tetrahydro-3-hydroxy-5,5,8,8-tetramethyl-2-naphthyl phenyl ketone] | 28.3 ± 0.7 µM | – | 15.2 ± 2.3 µM | 1.9 | – | – | –
18 | CC(C)(C)C(=O)c1cc2c(cc1O)C(C)(C)CCC2(C)C [Agent C, 5,6,7,8-tetrahydro-3-hydroxy-5,5,8,8-tetramethyl-2-naphthyl tert-butyl ketone] | 43.2 ± 2.4 µM | – | 41.5 ± 0.8 µM | 1.0 | – | – | –
19 | CCC(=O)c1cc2c(cc1O)C(C)(C)CCC2(C)C [Agent A, 5,6,7,8-tetrahydro-3-hydroxy-5,5,8,8-tetramethyl-2-naphthyl ethyl ketone] | 32.3 ± 5.4 µM | – | 4.7 ± 1.3 µM | 6.9 | – | – | –
20 | CC1(C)CCC(C)(C)c2cc(C(=O)O)c(O)cc21 [TNBAA, reference compound] | – | 44.4 µM | – | – | 29.7 µM | 1.49 | –
